Consider one compound from publication PMC12838157, “A Multikinase Inhibitor AX-0085 Blocks FGFR1 Activation to Overcomes Osimertinib Resistance in Non-Small Cell Lung Cancer” (Biomedicines, 2025).

Assay [1] addresses T1, AXL (Homo sapiens, UniProt P30530).
T1 sequence (P30530 26-894): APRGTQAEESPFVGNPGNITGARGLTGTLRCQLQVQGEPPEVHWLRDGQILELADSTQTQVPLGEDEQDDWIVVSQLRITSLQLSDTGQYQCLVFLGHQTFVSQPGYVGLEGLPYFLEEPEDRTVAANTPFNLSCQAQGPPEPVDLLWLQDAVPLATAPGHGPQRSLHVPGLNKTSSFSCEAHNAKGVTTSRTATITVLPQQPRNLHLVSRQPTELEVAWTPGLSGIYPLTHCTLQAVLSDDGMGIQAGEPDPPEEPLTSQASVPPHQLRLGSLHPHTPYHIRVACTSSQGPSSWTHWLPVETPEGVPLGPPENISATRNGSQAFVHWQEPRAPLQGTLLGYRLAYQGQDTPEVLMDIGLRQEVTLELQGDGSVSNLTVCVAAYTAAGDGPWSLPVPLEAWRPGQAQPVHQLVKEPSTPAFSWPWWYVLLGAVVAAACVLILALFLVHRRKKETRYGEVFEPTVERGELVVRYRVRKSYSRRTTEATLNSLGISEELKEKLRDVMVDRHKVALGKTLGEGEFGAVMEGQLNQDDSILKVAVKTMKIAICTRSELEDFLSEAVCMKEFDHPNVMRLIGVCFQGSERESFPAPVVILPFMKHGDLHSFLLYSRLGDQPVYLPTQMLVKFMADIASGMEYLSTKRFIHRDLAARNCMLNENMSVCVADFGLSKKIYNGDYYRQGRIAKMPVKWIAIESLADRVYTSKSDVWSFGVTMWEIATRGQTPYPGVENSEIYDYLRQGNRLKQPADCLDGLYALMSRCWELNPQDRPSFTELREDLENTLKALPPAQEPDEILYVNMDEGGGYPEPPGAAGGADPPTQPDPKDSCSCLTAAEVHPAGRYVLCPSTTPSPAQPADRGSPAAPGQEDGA
In words: kinase assay IC50 (called cell-based kinase assay in the Figure […] legend); also reduced phospho-AXL in HCC827-osi cells.

For assay [2], the target named is FGFR1 (fibroblast growth factor receptor 1) (Homo sapiens, UniProt P11362). In words: kinase assay IC50 (called cell-based kinase assay in the Figure […] legend); also reduced phospho-FGFR1 in HCC827-osi cells.
FGFR1 (fibroblast growth factor receptor 1), sequence (P11362 22-822): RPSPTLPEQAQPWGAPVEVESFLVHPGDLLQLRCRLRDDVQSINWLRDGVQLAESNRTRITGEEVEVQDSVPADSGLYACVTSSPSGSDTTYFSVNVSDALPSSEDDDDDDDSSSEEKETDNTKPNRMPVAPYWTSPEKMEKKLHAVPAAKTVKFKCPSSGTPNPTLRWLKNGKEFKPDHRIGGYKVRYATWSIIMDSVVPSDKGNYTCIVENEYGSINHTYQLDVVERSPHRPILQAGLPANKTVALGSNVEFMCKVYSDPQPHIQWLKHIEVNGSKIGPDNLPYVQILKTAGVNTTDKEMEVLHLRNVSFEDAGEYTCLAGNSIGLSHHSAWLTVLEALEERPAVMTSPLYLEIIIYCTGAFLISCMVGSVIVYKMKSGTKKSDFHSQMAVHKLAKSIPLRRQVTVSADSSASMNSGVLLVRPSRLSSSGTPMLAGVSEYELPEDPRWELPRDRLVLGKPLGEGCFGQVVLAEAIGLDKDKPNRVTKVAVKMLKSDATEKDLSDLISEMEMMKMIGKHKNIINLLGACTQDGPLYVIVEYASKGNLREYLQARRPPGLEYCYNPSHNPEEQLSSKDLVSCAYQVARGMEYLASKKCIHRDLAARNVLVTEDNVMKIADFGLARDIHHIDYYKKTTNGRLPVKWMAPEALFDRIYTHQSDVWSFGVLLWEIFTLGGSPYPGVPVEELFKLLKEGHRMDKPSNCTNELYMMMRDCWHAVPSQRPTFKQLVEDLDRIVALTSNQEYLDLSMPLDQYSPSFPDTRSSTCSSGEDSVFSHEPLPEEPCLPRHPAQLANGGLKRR

Turning to `CN1C(=O)N(c2cc(NC(=O)c3cccc(C(F)(F)F)c3)cnc2Cl)Cc2cnc(Nc3ccccc3)nc21` [AX-0085], the IC50 turned out to be 4.4 nM in assay [1] and 2.2 nM in assay [2].
